Assay results from US8835392B2, “Mimetic peptides and the use thereof in the form of 20S, 26S and immunoproteasome inhibitors” (Technische Universität, priority 2005, dated 2014).
“Also recorded” adds a separate entry of the source. Where a SMILES comes first, the peptide text is derived from it. [ ]: non-standard residue; d: D form. The star is where a group is joined. Leu(ol) = CC(C)C[C@H](N)CO; Cbz = O=C(OCc1ccccc1)*; Boc = CC(C)(C)OC(=O)*; OBn = c1ccc(CO*)cc1; OtBu = CC(C)(C)O*; CH2Cl = ClC*

Experiments:
[1] = target: T1, 20S proteasome β2 trypsin-like activity (VGR-MCA) (Homo sapiens, UniProt P49720+Q99436); assay: Protease assay, trypsin-like activity of isolated 20S proteasomes; format: biochemical; details: isolated 20S proteasome; VGR-MCA 50 μM; 15 min pre-incubation; read-out: IC50 β2 Trypsin-like (R)
T1 construct: Proteasomes were isolated from red blood cells; from tissue; host or cells: red blood cells
Experimental: (§1) Proteasomes were isolated from red blood cells. Cells were lysed with DTT (1 mM), and the stroma-free supernatant was loaded on DEAE-sepharose (Toyopearls). Proteasome was eluted with an NaCl-gradient in TEAD (20 mM TrisCl pH 7.4, 1 mM EDTA, 1 mM azide, 1 mM DTT) of 100 to 300 mM NaCl. Proteasome was concentrated using ammonium sulfate-precipitation (between 40 and 70% saturation) and was separated in a 10-40% sucrose-gradient through centrifugation at 40.000 rpm for 16 hours (SW40; L7, Beckman & Coulter). Finally, the proteasomes were purified on a MonoQ-column and eluted with an NaCl-gradient at about 280 mM NaCl. The fractions containing purified proteasome were dialysed against 50 mM NaCl in TEAD and stored on ice. The purity was determined using SDS-PAGE.
(§2) Suc-LLVY-AMC, Z-VGR-AMC and LLE-AMC (BACHEM, Calbiochem) was used, in order to determine the chymotrypsin-like, trypsin-like or caspase-like (post-acidic)-activities of the proteasome. Substrate was incubated with proteasome at 37° C. in assay-buffer (20 mM Tris/Cl, pH 7.2, 1 mM EDTA, 1 mM DTT) for one hour. 100 ng proteasome was pre-incubated with 0.01-10 μM of the inhibitor for […]. The reaction was started by the addition of substrate (50 μM). The AMC as released was detected using fluorescence emission at 460 nm (excitation at 390 nm) using a TECAN-fluorimeter. The activity was calculated in fluorescence-units. The inhibition is depicted by IC50-values.
(§3) The effects thereof were compared with the one of the commonly used proteasomal inhibitor 3 (MG132). The chymotrypsin-like (Suc-LLVY-AMC), the trypsin-like (Bz-VGR-AMC), and the caspase-like (Z-LLE-AMC)-activities of 20S proteasomes were determined following incubation for one hour at 37° C.
(§4) The IC50-values form the inhibition of the proteasome were calculated at increasing concentrations of the inhibitor. The samples were pre-incubated for 15 min in ice. The assay was started through the addition of 50 μM of one of the following fluorogenic peptide substrates:
(§5) The release of MCA was determined at 460 nm emission (excitation 390 nm). The IC50-values as calculated for MG132 served as controls.

[2] = target: T2, 20S proteasome β5 chymotrypsin-like activity (Suc-LLVY-AMC) (Homo sapiens, UniProt P20618+P28074); assay: Protease assay, chymotrypsin-like activity of isolated 20S proteasomes (LLVY substrate); format: biochemical; details: isolated 20S proteasome; LLVY-MCA 50 μM; 15 min pre-incubation; read-out: IC50 β5 Chymotrypsin-like (Y)
T2 construct: Proteasomes were isolated from red blood cells; from tissue; host or cells: red blood cells
Experimental: as §1, §2
The chymotrypsin-like (Suc-LLVY-AMC), the trypsin-like (Bz-VGR-AMC), and the caspase-like (Z-LLE-AMC)-activities of 20S proteasomes were determined following incubation for one hour at 37° C.
as §4, §5

[3] = target: T3, 20S proteasome β1 caspase-like activity (LLE-MCA) (Homo sapiens, UniProt P28072+Q99436); assay: Protease assay, caspase-like activity of isolated 20S proteasomes; format: biochemical; details: isolated 20S proteasome; LLE-MCA 50 μM; 15 min pre-incubation; read-out: IC50 β1 Caspase-like (E)
T3 construct: Proteasomes were isolated from red blood cells; from tissue; host or cells: red blood cells
Experimental: as §1, §2, §3, §4, §5

20S proteasome = test system: T4, 20S proteasome; assay: Inhibition of the different proteasomal activities, summary statements; format: biochemical; details: isolated proteasomes, specific substrates
T4 construct: Proteasomes were isolated from red blood cells; from tissue; host or cells: red blood cells
Experimental: The specific inhibition of a single catalytic site is of specific interest for the development of drugs. Thus, the inhibition of the different proteasomal activities of the proteasome was analysed (see also example 6). The different cleavage-preferences of the proteasome were determined by the specific substrate for the hydrophobic (chymotrypsin-like), the trypsine-like and the caspase-like activities of isolated proteasomes.
as §2, §3

[4] = target: T5, proteasomal activity in HeLa-cells (Homo sapiens, UniProt P20618+P28074); assay: Intracellular inhibition of proteasomes in cultivated HeLa-cells; format: cell-based; details: for reduction of the specific proteasomal activity in cells: 1 μM; for membrane-permeation / stability during the incubation periods: cultivated cells
T5 construct: endogenous in cells; host or cells: HeLa
Experimental: (§6) A, HeLa-cells were cultivated were 24 hours in the presence of the inhibitor. The protein concentration was determined in accordance with the cellular lysis according to Bradford in order to normalise the proteasomal activities to the different amounts of cells. Subsequently Complete (Roche) was added to all lysates, and the proteasomal activity was determined through the hydrolysis of Suc-LLVY-AMC. B, HeLa-cells was incubated with 1 μM of compound 15 for 2, 4, 6 and 24 hours. Cells were lysed, and proteins were separated through SDS-PAGE on a 10% gel, blotted to a PVDF-membrane. The accumulation of the poly-ubiquitinylated proteins was detected in a Western blot by an anti-ubiquitine-antibody (DAKO). C, HeLa-Cells were treated with increasing concentrations of the inhibitor 15, 25, 26, 27, and 28 for 24 hours (lane 1: without inhibitor; lane 2: 10 nM; lane 3: 100 nM and lane 4: 1 μM of the given inhibitor). Cells were lysed, proteins were separated on 15% gels, and the accumulation of the poly-ubiquitinylated proteins was controlled through Western blot.
HeLa-Cells were cultivated in RPMI, supplemented with 10% FCS and penicillin/streptomycin, at 5% CO2. Inhibitors were administered from 100×-stock solutions (in DMSO) at the final concentrations as indicated, and incubated with the cells for at least 20 hours.
Cultivated cells (HeLa) were harvested lysed and with 0.1% NP40 in TEAD in the presence of the commercially available protease-inhibitor-mixture Complete (Roche). The proteasomal activity was measured in 10 μl of the lysate using Suc-LLVY-AMC as a substrate. The protein content was quantified by means of Bradford (Protein assay; BioRad).
An application on cell cultures or animals requires that the concentrations of the inhibitors are chose as low as required. The specific proteasomal activity was reduced to a value of below 50% in cells that were treated with 1 μM of the compounds 15, 22, 25, 26, or 28, respectively (FIG. 6A).

[5] = Hydrolytic stability of dichlorovinylethers; format: physicochemical; details: for stability at pH 11: converted into α-chloroacetates
Excerpt: The non-selective dichlorovinylester 1 (see FIG. 1), which readily reacts with all possible nucleophiles, such as, for example, cysteine, serine and finally also threonine, served as a further lead-structure for the syntheses of compounds according to the invention. In addition, the aim was pursued to reduce the inherent over-activation of this compound. The “removal” of the acyl group of 1 could reduce the non-specific hydrolysis through ubiquitary nucleophiles, and results in quite stable dichlorovinylethers (28). […] This dual reactivity which is provided in a cascade-like reaction, corresponds to the specific requirements for an N-terminal threonine-protease-inhibitor.

[6] = test system: poly-ubiquitinylated proteins in HeLa-cells; assay: Accumulation of poly-ubiquitinylated proteins, Western blot; format: cell-based; details: 1 μM for compound 15
Experimental: as §6
A specific inhibition of the proteasome lead to an accumulation of poly-ubiquitinylated proteins. Indeed, the amount of poly-ubiquitinylated proteins increased during the incubation with the inhibitors. First effects were observed after 2 hours, for compound 15 (FIG. 6B) as well as for compounds 20, 22, 25 and 28 (data not shown).
50 μg of whole-cell-lysate were separated by SDS-PAGE, and blottet onto a PVDF-membrane (Millipore). The blots were blocked by means of a 5% milk-suspension. The poly-ubiquitinylated proteins were detected by anti-ubiquitin-antibody (DAKO), and anti-rabbit, POD-labelled, as a secondary antibody (DIANOVA), and visualized through ECL.

HeLa-cells = assay: Viability of HeLa-cells, crystal violet-staining; format: cell-based; details: 10 μM, 20 hours
Experimental: A, The viability of HeLa-Cells that were incubated with the compounds 7-28 and MG132 (1 μM), was determined using crystal-violet-staining after 20 h.
B, The viability of HeLa-Cells is dependent from the concentration of the inhibitor. HeLa-cells were cultivated for 20 hours in the presence of increasing concentrations (10 to 10000 nM) of the compounds (7, 13, 15, 18, 20-22, 24-28) and MG 132. The survival of the cells was determined using crystal-violet-staining.
The viability of Hela-Cells in the presence of different compounds was tested in […]. The viability of HeLa-cells was tested through crystal violet-staining following the incubation with the inhibitors. The cells were washed once with PBS, fixed with 1% glutardialdehyde for 30 min, and washed again. Finally, the fixed cells were stained with 0.1% crystal violet in PBS for 30 min, and subsequently carefully washed with water, in order to remove unbound dye. The residual dye was eluted with 0.1% Triton X-100 in PBS, and determined at 550 nm.

Compound | IC50 [2] [µM] | IC50 [3] [µM] | which proteasomal activities are inhibited (site selectivity) (20S proteasome) | also measured
CC(C)C[C@@H](CO)NC(=O)[C@H](CC(=O)OC(C)(C)C)NC(=O)[C@H](CC(C)C)NC(=O)OCc1ccccc1 [Compound 8] (Cbz-Leu-Asp(OtBu)-[Leu(ol)]) | > 10 | > 10 | exclusive inhibition of the trypsin-like activity; also recorded: specifically reduced the trypsine-like activity | IC50 [1]: 5.48 µM
CC(=O)N[C@@H](CC(C)C)C(=O)N[C@@H](CC(=O)OC(C)(C)C)C(=O)N[C@H](CO)CC(C)C [Compound 9] (Ac-Leu-Asp(OtBu)-[Leu(ol)]) | > 10 | – | – | –
CC(=O)N[C@@H](CC(C)C)C(=O)N[C@@H](CC(=O)OCc1ccccc1)C(=O)N[C@H](CO)CC(C)C [Compound 10] (Ac-Leu-Asp(OBn)-[Leu(ol)]) | > 10 | – | – | –
CC(C)C[C@@H](CO)NC(=O)[C@H](CC(=O)OCc1ccccc1)NC(=O)[C@H](CC(C)C)NC(=O)OCc1ccccc1 [Compound 11] (Cbz-Leu-Asp(OBn)-[Leu(ol)]) | > 10 | – | – | –
CC(C)C[C@@H](CO)NC(=O)[C@H](CC(=O)OCc1ccccc1)NC(=O)[C@H](CC(C)C)NC(=O)OC(C)(C)C [Compound 12] (Boc-Leu-Asp(OBn)-[Leu(ol)]) | > 10 | – | – | –
CC(C)C[C@@H](C=O)NC(=O)[C@H](CC(=O)O)NC(=O)[C@H](CC(C)C)NC(=O)OCc1ccccc1 [Compound 16] (Cbz-Leu-Asp-Leu-aldehyde) | 7.26 | > 10 | exclusive reduction of the chymotryptic activity | IC50 [1]: > 10 µM
CC(C)C[C@@H](C=O)NC(=O)[C@H](CC(=O)OCc1ccccc1)NC(=O)[C@H](CC(C)C)NC(=O)OCc1ccccc1 [Compound 18] (Cbz-Leu-Asp(OBn)-Leu-aldehyde) | 1.73 | 3.12 | inhibited the chymotryptic and the caspase-like sites | reduction of the specific proteasomal activity in cells ([4]; HeLa cells): very weak inhibition
CC(C)C[C@H](NC(=O)OCc1ccccc1)C(=O)N[C@@H](CC(C)C)C(=O)N[C@H](COC(Cl)=CCl)c1ccccc1 [Compound 19] | – | – | – | stability in acidic environment [5]: tolerate an acidic environment; stability at pH 11 [5]: hydrolysed readily
CC(C)C[C@@H](COC(Cl)=CCl)NC(=O)[C@H](CC(C)C)NC(=O)[C@H](CC(C)C)NC(=O)OCc1ccccc1 [Compound 20] | > 10 | > 10 | – | stability in acidic environment [5]: tolerate an acidic environment; stability at pH 11 [5]: hydrolysed readily; IC50 [1]: > 10 µM; first effects on accumulation of poly-ubiquitinylated proteins observed after [6]: 2 h
CC(C)CC(NC(=O)C(CC(C)C)NC(=O)C(CC(C)C)NC(=O)OCc1ccccc1)C(=O)CCl (stereo not drawn) [Compound 22] (Cbz-Leu-Leu-Leu-CH2Cl; configuration not given here) | 2.2 | – | exclusive reduction of the chymotryptic activity | first effects on accumulation of poly-ubiquitinylated proteins observed after [6]: 2 h; reduction of the proteolytic activity in cells at 10 nM ([4]; HeLa cells, 10 nM): reduction of the proteolytic activity; membrane-permeation [4]: membrane-permeation; stability during the incubation periods [4]: sufficient stability
CC(C)C[C@H](NC(=O)OCc1ccccc1)C(=O)N[C@@H](CC(C)C)C(=O)N[C@@H](CC(C)C)C(O)C(=O)Nc1ccccc1 (stereo partly shown) [Compound 25] | 0.981 | 4.04 | inhibited the chymotryptic and the caspase-like sites | first effects on accumulation of poly-ubiquitinylated proteins observed after [6]: 2 h; membrane-permeation [4]: membrane-permeation; stability during the incubation periods [4]: sufficient stability
CC(C)C[C@H](NC(=O)OCc1ccccc1)C(=O)N[C@@H](CC(C)C)C(=O)N[C@@H](CC(C)C)C(=O)C(=O)NCc1cccnc1 [Compound 27] | – | 7.97 | inhibited the chymotryptic and the caspase-like sites | rate of survival of HeLa-cells (HeLa-cells): markedly reduced; reduction of the specific proteasomal activity in cells ([4]; HeLa cells): markedly reduction
